“And” between values parts separate entries of the source, which are not always exact repeats. Equal entries are not always repeated.
Experiments:
Sphaerotheca fuliginea = test: Example V: preventative in vivo test with Sphaerotheca fuliginea (powdery mildew on cucumber); conditions: 500 ppm, evaluation 12 days after inoculation
Method: The active compounds tested are prepared by homogenization in a mixture of acetone/Tween/DMSO and then diluted with water to the desired active compound concentration. Cucumber plants (cultivar “Vert petit de Paris”), sown in a 50/50 peat/pozzolana soil substrate and cultivated at 24° C., are treated at the Z11 cotyledon stage by spraying with the active compound, prepared as above. As a control, plants are treated with the mixture of acetone/Tween/DMSO/water without the active compound. After 24 hours, the plants are inoculated by spraying the leaves with an aqueous suspension of Sphaerotheca fuliginea spores. The inoculated cucumber plants are incubated at about 20° C./25° C. and a relative atmospheric humidity of 60/70%.

Uromyces appendiculatus [1] = test: Example W: preventative in vivo test with Uromyces appendiculatus (bean rust); conditions: 500 ppm, evaluation 10 days after inoculation
Method: The active compounds tested are prepared by homogenization in a mixture of acetone/Tween/DMSO and then diluted with water to the desired active compound concentration. Bean plants (cultivar “Saxa”), sown in a 50/50 peat/pozzolana soil substrate and cultivated at 24° C., are treated at the 2-leaf stage (height 9 cm) by spraying with the active compound, prepared as above. As a control, plants are treated with the mixture of acetone/Tween/DMSO/water without the active compound. After 24 hours, the plants are inoculated by spraying the leaves with an aqueous suspension of Uromyces appendiculatus spores.

Septoria tritici [2] = test: Example Z: Septoria tritici test (wheat)/protective, comparison; format: in vivo; conditions: protective, application rate 250 ppm, evaluation 21 days after inoculation
Method: (§1) Solvent: 49 parts by weight of N,N-dimethylacetamide Emulsifier: 1 part by weight of alkylaryl polyglycol ether To produce a suitable preparation of active compound, 1 part by weight of active compound or active compound combination is mixed with the stated amounts of solvent and emulsifier, and the concentrate is diluted with water to the desired concentration. To test for protective activity, young plants are sprayed with the preparation of active compound or active compound combination at the stated application rate. After the spray coating has dried on, the plants are sprayed with a spore suspension of Septoria tritici.

Puccinia recondita = test: Example T: preventative in vivo test with Puccinia recondita (brown rust on wheat); conditions: 500 ppm, evaluation 10 days after inoculation
Method: The active compounds tested are prepared by homogenization in a mixture of acetone/Tween/DMSO and then diluted with water to the desired active compound concentration. Wheat plants (cultivar “Scipion”), sown in a 50/50 peat/pozzolana soil substrate and cultivated at 22° C. (12 h)/20° C. (12 h), are treated at the 1-leaf stage (height 10 cm) by spraying with the active compound, prepared as above. As a control, plants are treated with the mixture of acetone/Tween/DMSO/water without the active compound. After 24 hours, the plants are inoculated by spraying the leaves with an aqueous suspension of Puccinia recondita spores.

Phakopsora pachyrhizi = test: Example F: Phakopsora test (soya beans)/protective; format: in vivo; conditions: protective, 100 ppm, evaluation 7 days after inoculation
Method: (§2) Solvents: 24.5 parts by weight of acetone • 24.5 parts by weight of dimethylacetamide Emulsifier: 1 part by weight of alkylaryl polyglycol ether To produce a suitable preparation of active compound, 1 part by weight of active compound is mixed with the stated amounts of solvent and emulsifier, and the concentrate is diluted with water to the desired concentration. To test for protective activity, young plants are sprayed with the preparation of active compound at the stated application rate.

Pyricularia oryzae [3] = format: in vivo; conditions: rice, protective, 500 ppm, evaluation 7 days after inoculation
Pyricularia oryzae [4] = format: in vivo; conditions: rice, preventative, 500 ppm, evaluation 6 days after inoculation
Alternaria solani = test: Example A: Alternaria test (tomato)/protective; format: in vivo; conditions: protective, 500 ppm, evaluation 7 days after inoculation
Method: Solvent: 49 parts by weight of N,N-dimethylformamide Emulsifier: 1 part by weight of alkylaryl polyglycol ether To produce a suitable preparation of active compound, 1 part by weight of active compound is mixed with the stated amounts of solvent and emulsifier, and the concentrate is diluted with water to the desired concentration. […] The plants then remain at 96% rel. atmospheric humidity and a temperature of 20° C.

Puccinia triticina = test: Example L: Puccinia triticina test (wheat)/protective; format: in vivo; conditions: protective, 500 ppm, evaluation 8 days after inoculation
Method: as §1, with “active compound is mixed” for “active compound or active compound combination is mixed”, “active compound at the” for “active compound or active compound combination at the”, “sprayed with spores with a spore” for “sprayed with a spore”, “suspension of Puccinia triticina.” for “suspension of Septoria tritici.”

Septoria tritici [5] = test: Example U: preventative in vivo test with Septoria tritici (leaf blotch disease on wheat); conditions: 500 ppm, evaluation 21 to 28 days after inoculation
Method: The active compounds tested are prepared by homogenization in a mixture of acetone/Tween/DMSO and then diluted with water to the desired active compound concentration. Wheat plants (cultivar “Scipion”), sown in a 50/50 peat/pozzolana soil substrate and cultivated at 22° C. (12 h)/20° C. (12 h), are treated at the 1-leaf stage (height 10 cm) by spraying with the active compound, prepared as above. As a control, plants are treated with the mixture of acetone/Tween/DMSO/water without the active compound. After 24 hours, the plants are inoculated by spraying the leaves with an aqueous suspension of cryogenically preserved Septoria tritici spores.

Uromyces appendiculatus [6] = test: Example E: Uromyces test (bean)/protective; format: in vivo; conditions: protective, 10 ppm, evaluation 10 days after inoculation
Method: as §2, with “rate. […] The plants are then placed in a greenhouse at about 21° C. and a relative atmospheric humidity of about 90%.” for “rate.”

[7] = tested on: Blumeria graminis f.sp. hordei; test: Example G: Blumeria graminis test (barley)/protective; format: in vivo; conditions: protective, 500 ppm, evaluation 7 days after inoculation
Method: Solvent: 49 parts by weight of N,N-dimethylacetamide Emulsifier: 1 part by weight of alkylaryl polyglycol ether To produce a suitable preparation of active compound, 1 part by weight of active compound is mixed with the stated amounts of solvent and emulsifier, and the concentrate is diluted with water to the desired concentration. To test for protective activity, young plants are sprayed with the preparation of active compound at the stated application rate. After the spray coating has dried on, the plants are dusted with spores of Blumeria graminis f.sp. hordei.

`OC(Cc1ccccc1Cl)(Cn1ccnc1I)C1(Cl)CC1` (stereo not drawn) [Example 1, 2-(1-chlorocyclopropyl)-1-(2-chlorophenyl)-3-(2-iodo-1H-imidazol-1-yl)propan-2-ol] showed an Efficacy % (Sphaerotheca fuliginea) of 100%, an Efficacy % (Uromyces appendiculatus [1]) of 100% and an Efficacy in % (Septoria tritici [2]) of 86%. For the same compound, the Efficacy % (Puccinia recondita) was 100%, the Eff. % (Phakopsora pachyrhizi) was 98% and the Eff. % (Pyricularia oryzae [3]) was 95%. It also gave an Efficacy % (Pyricularia oryzae [4]) of 100%, an Eff. % (Alternaria solani) of 88% and an Eff. % (Puccinia triticina) of 100%. For the same compound, the Efficacy % (Septoria tritici [5]) was 100%, the Eff. % (Uromyces appendiculatus [6]) was 100% and 88% and the Eff. % [7] was 100%.

From patent US9095136B2, “2-IODO imidazole-derivatives” (BAYER INTELLECTUAL PROPERTY GMBH, priority 2011, dated 2015)
